Reference: PubChem BioAssay (NCI)
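Where inhibition never reached the appropriate level, the endpoint shown equals the highest concentration tested. Otherwise, values were interpolated linearly from a five-concentration, 48-hour dose response in 96-well plates. At the GI50, growth is halved. TGI: concentration producing complete growth inhibition.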

Key:
Assay in all cases: NCI anticancer screen, dose series, 48 h
[1] = tested on: RXF 393 renal
[2] = tested on: M14 melanoma
[3] = tested on: UO-31 renal
[4] = tested on: HT29 colon
[5] = tested on: A549 NSCLC
[6] = tested on: MALME-3M melanoma
[7] = tested on: SNB-19 CNS
[8] = tested on: HCC-2998 colon
[9] = tested on: SF-295 CNS
[10] = tested on: HOP-92 NSCLC
[11] = tested on: SF-268 CNS
[12] = tested on: HCT-15 colon
[13] = tested on: MDA-MB-435
[14] = tested on: MDA-MB-231 breast
[15] = tested on: COLO 205 colon
[16] = tested on: CAKI-1 renal
[17] = tested on: HOP-62 NSCLC
[18] = tested on: ACHN renal
[19] = tested on: MOLT-4 leukemia
[20] = tested on: DU-145 prostate
[21] = tested on: OVCAR-4 ovarian
[22] = tested on: OVCAR-3 ovarian
[23] = tested on: EKVX NSCLC
[24] = tested on: BT-549 breast
[25] = tested on: SK-MEL-2 melanoma
[26] = tested on: UACC-62 melanoma
[27] = tested on: NCI-H23 lung
[28] = tested on: SW-620 colon
[29] = tested on: SNB-75 CNS
[30] = tested on: SK-MEL-5 melanoma
[31] = tested on: TK-10 renal
[32] = tested on: KM12 colon
[33] = tested on: HS 578T breast
[34] = tested on: PC-3 prostate
[35] = tested on: NCI-H226 lung
[36] = tested on: T-47D breast
[37] = tested on: SR leukemia
[38] = tested on: NCI/ADR-RES ovarian
[39] = tested on: U251 CNS
[40] = tested on: NCI-H460 lung
[41] = tested on: UACC-257 melanoma
[42] = tested on: A498 renal
[43] = tested on: SF-539 CNS
[44] = tested on: SK-OV-3 ovarian
[45] = tested on: 786-0 renal
[46] = tested on: OVCAR-5 ovarian
[47] = tested on: NCI-H522 lung
[48] = tested on: HCT-116 colon
[49] = tested on: MCF7 breast
[50] = tested on: IGROV1 ovarian
[51] = tested on: SK-MEL-28 melanoma
[52] = tested on: K-562 leukemia
[53] = tested on: CCRF-CEM leukemia
[54] = tested on: OVCAR-8 ovarian
[55] = tested on: RPMI-8226 leukemia
[56] = tested on: LOX IMVI melanoma
[57] = tested on: SN12C renal
[58] = tested on: HL-60(TB) leukemia

## Cc1c(/C=N\NC(=S)N2CCN(C(=S)N/N=C\c3c(C)n(C)n(-c4ccccc4)c3=O)CC2)c(=O)n(-c2ccccc2)n1C
[1]
  TGI: > 100 µM
[2]
  TGI: > 100 µM
[3]
  TGI: > 100 µM
[4]
  TGI: 34.9 µM
[5]
  TGI: > 100 µM
[6]
  TGI: > 100 µM
[7]
  TGI: > 100 µM
[8]
  TGI: > 100 µM
[9]
  TGI: > 100 µM
[10]
  TGI: > 100 µM
[11]
  TGI: > 100 µM
[12]
  TGI: > 100 µM
[13]
  TGI: 64.7 µM
[14]
  TGI: 73.9 µM
[15]
  TGI: > 100 µM
[16]
  TGI: > 100 µM
[17]
  TGI: > 100 µM
[18]
  TGI: > 100 µM
[19]
  TGI: > 100 µM
[20]
  TGI: > 100 µM
[21]
  TGI: > 100 µM
[22]
  TGI: > 100 µM
[23]
  TGI: > 100 µM
[24]
  TGI: > 100 µM
[25]
  TGI: 92.7 µM
[26]
  TGI: > 100 µM
[27]
  TGI: > 100 µM
[28]
  TGI: > 100 µM
[29]
  TGI: 48.7 µM
[30]
  TGI: > 100 µM
[31]
  TGI: 33.9 µM
[32]
  TGI: > 100 µM
[33]
  TGI: > 100 µM
[34]
  TGI: > 100 µM
[35]
  TGI: > 100 µM
[36]
  TGI: > 100 µM
[37]
  TGI: > 100 µM
[38]
  TGI: > 100 µM
[39]
  TGI: > 100 µM
[40]
  TGI: > 100 µM
[41]
  TGI: 97.3 µM
[42]
  TGI: > 100 µM
[43]
  TGI: > 100 µM
[44]
  TGI: > 100 µM
[45]
  TGI: > 100 µM
[46]
  TGI: > 100 µM
[47]
  TGI: > 100 µM
[48]
  TGI: > 100 µM

## CC(C)(C)OC(=O)NC(C)(C)C(=O)NCCC(=O)O
[1]
  TGI: > 100 µM
[2]
  TGI: > 100 µM
[49]
  TGI: > 100 µM
[3]
  TGI: > 100 µM
[4]
  TGI: > 100 µM
[5]
  TGI: > 100 µM
[7]
  TGI: > 100 µM
[9]
  TGI: > 100 µM
[11]
  TGI: > 100 µM
[50]
  TGI: > 100 µM
[12]
  TGI: > 100 µM
[51]
  TGI: > 100 µM
[13]
  TGI: > 100 µM
[14]
  TGI: > 100 µM
[15]
  TGI: > 100 µM
[16]
  TGI: > 100 µM
[17]
  TGI: > 100 µM
[52]
  TGI: > 100 µM
[18]
  TGI: > 100 µM
[19]
  TGI: > 100 µM
[21]
  TGI: > 100 µM
[22]
  TGI: > 100 µM
[23]
  TGI: > 100 µM
[53]
  TGI: > 100 µM
[24]
  TGI: > 100 µM
[25]
  TGI: > 100 µM
[26]
  TGI: > 100 µM
[27]
  TGI: > 100 µM
[54]
  TGI: > 100 µM
[28]
  TGI: > 100 µM
[29]
  TGI: > 100 µM
[30]
  TGI: > 100 µM
[55]
  TGI: > 100 µM
[31]
  TGI: > 100 µM
[32]
  TGI: > 100 µM
[33]
  TGI: > 100 µM
[34]
  TGI: > 100 µM
[35]
  TGI: > 100 µM
[36]
  TGI: > 100 µM
[38]
  TGI: > 100 µM
[39]
  TGI: > 100 µM
[40]
  TGI: > 100 µM
[41]
  TGI: > 100 µM
[42]
  TGI: > 100 µM
[43]
  TGI: > 100 µM
[44]
  TGI: > 100 µM
[56]
  TGI: > 100 µM
[45]
  TGI: > 100 µM
[57]
  TGI: > 100 µM
[46]
  TGI: > 100 µM
[47]
  TGI: > 100 µM

## CC(=O)c1ccc(Nc2cc(-c3ccccc3)nc3c(O)cccc23)cc1
[1]
  GI50: 17.4 µM
  TGI: 60.3 µM
[2]
  GI50: 4.58 µM
  TGI: 33.9 µM
[3]
  GI50: 14 µM
  TGI: 53.9 µM
[4]
  GI50: 20.7 µM
  TGI: 43 µM
[5]
  GI50: 30.6 µM
  TGI: > 100 µM
[6]
  GI50: 19.6 µM
  TGI: 68.3 µM
[8]
  GI50: 13.7 µM
  TGI: 36.7 µM
[9]
  GI50: 37.2 µM
  TGI: > 100 µM
[10]
  GI50: 13.7 µM
  TGI: 50.5 µM
[50]
  GI50: 2.57 µM
  TGI: 13.4 µM
[12]
  GI50: 8.31 µM
  TGI: > 100 µM
[51]
  GI50: 23.1 µM
  TGI: 88.8 µM
[13]
  GI50: 23.6 µM
  TGI: 65.3 µM
[14]
  GI50: 24 µM
  TGI: 55.7 µM
[15]
  GI50: 32.1 µM
  TGI: > 100 µM
[16]
  GI50: 41.3 µM
  TGI: > 100 µM
[17]
  GI50: 10.6 µM
  TGI: 36 µM
[52]
  GI50: 4.73 µM
  TGI: > 100 µM
[18]
  GI50: 20.5 µM
  TGI: 74.1 µM
[20]
  GI50: 21.8 µM
  TGI: > 100 µM
[21]
  GI50: 18.2 µM
  TGI: 64.7 µM
[58]
  GI50: 3.13 µM
  TGI: 30.6 µM
[22]
  GI50: > 100 µM
  TGI: > 100 µM
[23]
  GI50: 28.7 µM
  TGI: > 100 µM
[53]
  GI50: 5.05 µM
  TGI: 34.6 µM
[24]
  GI50: 28.7 µM
  TGI: > 100 µM
[25]
  GI50: 13.2 µM
  TGI: 40.4 µM
[26]
  GI50: 12.7 µM
  TGI: 29.6 µM
[27]
  GI50: 12.5 µM
  TGI: 64.7 µM
[54]
  GI50: 19 µM
  TGI: > 100 µM
[28]
  GI50: 7.06 µM
  TGI: > 100 µM
[29]
  GI50: 17.9 µM
  TGI: 50.5 µM
[30]
  GI50: 13 µM
  TGI: 26.7 µM
[55]
  GI50: 8.8 µM
  TGI: 46.8 µM
[31]
  GI50: 18.1 µM
  TGI: 84.8 µM
[32]
  GI50: 5.72 µM
  TGI: > 100 µM
[33]
  GI50: 27 µM
  TGI: > 100 µM
[34]
  GI50: 8.62 µM
  TGI: > 100 µM
[35]
  GI50: 28.2 µM
  TGI: > 100 µM
[36]
  GI50: 16.6 µM
  TGI: 63.7 µM
[37]
  GI50: 1.59 µM
  TGI: 49.5 µM
[38]
  GI50: 5.53 µM
  TGI: 34.9 µM
[39]
  GI50: 9.44 µM
  TGI: > 100 µM
[41]
  GI50: 21 µM
  TGI: 53.4 µM
[42]
  GI50: 25.3 µM
  TGI: 71.7 µM
[43]
  GI50: 21.5 µM
  TGI: 68.4 µM
[44]
  GI50: 57.1 µM
  TGI: > 100 µM
[56]
  GI50: 14.5 µM
  TGI: > 100 µM
[45]
  GI50: 8.8 µM
  TGI: 83.4 µM
[57]
  GI50: 24.7 µM
  TGI: 58.2 µM
[46]
  GI50: 54.5 µM
  TGI: > 100 µM
[47]
  GI50: 2.98 µM
  TGI: 9.64 µM
[48]
  GI50: 5.79 µM
  TGI: 90.2 µM
